Literature values, collected in patent US20040121305A1, “Generation of efficacy, toxicity and disease signatures and methods of use thereof” (priority 2002, published 2004).

Settings: known toxins to be used for toxicity signature generation; organs known to be targeted

| Compound | Target organ/organ system |
| --- | --- |
| CC(C)(Oc1ccc(C2CC2(Cl)Cl)cc1)C(=O)O (stereo not drawn) [ciprofibrate (cipro), ciprofibrate] | liver |
| CCN(CC)N=O [diethylntrosamine] | liver |
| C[C@@H]1[C@H](O)[C@@H](C)/C=C/C=C/C=C/C=C/C=C/C=C/C=C/[C@H](O[C@@H]2O[C@H](C)[C@@H](O)[C@H](N)[C@@H]2O)C[C@@H]2O[C@](O)(C[C@@H](O)C[C@@H](O)[C@H](O)CC[C@@H](O)C[C@@H](O)CC(=O)O[C@H]1C)C[C@H](O)[C@H]2C(=O)O [amphotericin B] | blood; cardiovascular system; kidney; liver |
| CC(=O)Nc1ccc(O)cc1 [acetaminophen] | kidney |
| Nc1nc(O)c2ncn(COC(CO)CO)c2n1 [ganciclovir] | blood; liver |
| Cc1cccc(C)c1NC(=O)C(C)N (stereo not drawn) [tocainidine] | cardiovascular system |
| O=c1cc(-c2ccccc2)oc2ccc3ccccc3c12 [β-naphthoflavone (BNF), β-naphthoflavone] | liver |
| [AsH3] [arsenic] | liver |
| CNNC [dimethylhydrazine (DMH), dimethylhydrazine] | liver |
| C=CCO [allyl alcohol] | liver |
| Cc1cn([C@H]2C[C@H](N=[N+]=[N-])[C@@H](CO)O2)c(=O)[nH]c1=O [zidovudine (AZT), zidovudine] | blood; liver |
| CCOC(=O)C(C)(C)Oc1ccc(Cl)cc1 [clofibrate] | muscle |
| Cc1nccn1CC1CCc2c(c3ccccc3n2C)C1=O (stereo not drawn) [ondansetron] | liver |
| NCCBr [2-bromoethylamine (BEA), 2-bromoethylamine] | kidney |
| CN(C)CCN(Cc1cccs1)c1ccccn1 [methapyrilene] | liver |
| NNc1ccccc1 [phenylhydrazine (phenylhyrzn), phenylhydrazine] | liver |
| [Cl][Hg][Cl] [mercury(II) chloride (HgCl2), mercury(II) chloride] | kidney |
| Clc1cc(Cl)c(-c2cc(Cl)c(Cl)cc2Cl)cc1Cl [2,2′,4,4′,5,5′-hexachlorobiphenyl] | liver |
| COc1cc(N)c(Cl)cc1C(=O)NC1CCN(CCCOc2ccc(F)cc2)CC1OC (stereo not drawn) [propulsid] | cardiovascular system |
| NC(=O)N1c2ccccc2C=Cc2ccccc21 [carbamezipine] | blood; liver; reproductive system |
| [F-].[Na+] [sodium fluoride (NaF), sodium fluoride] | liver |
| CC(=O)Oc1ccccc1C(=O)O [aspirin] | cardiovascular system; kidney |
| CC[C@]1(O)C[C@H]2CN(CCc3c([nH]c4ccccc34)[C@@](C(=O)OC)(c3cc4c(cc3OC)N(C=O)[C@H]3[C@@](O)(C(=O)OC)[C@H](OC(C)=O)[C@]5(CC)C=CCN6CC[C@]43[C@@H]65)C2)C1 [vincristine] | nervous system; cardiovascular system; reproductive |

| Compound | Target organ/organ system |
| --- | --- |
| Clc1cc2c(cc1Cl)Oc1cc(Cl)c(Cl)cc1O2 [2,3,7,8-tetrachlorodibenzo-p-dioxin] | liver |
| [Cd] [cadmium] | kidney; liver; nervous system; respiratory system |
| Cc1ccc2cc3c(ccc4ccccc43)c3c2c1CC3 [3-methylcholanthrene] | liver |
| Nc1ccc(O)cc1 [4-aminophenol (PAP), 4-aminophenol] | kidney |
| CN(C)c1ncnc2c1ncn2[C@@H]1O[C@H](CO)[C@@H](N)[C@H]1O [puromycin aminonucleoside (PAN), puromycin aminonucleoside] | liver; kidney |
| S=C=Nc1cccc2ccccc12 [α-naphthyl isothiocyanate (ANIT), α-naphthyl isothiocyanate] | liver |
| Cc1c(C)c2c(c(C)c1O)CCC(C)(COc1ccc(CC3SC(=O)NC3=O)cc1)O2 (stereo not drawn) [troglitazone] | liver |
| NN [hydrazine] | liver |
| interleukin-6 (IL-6): interleukin-6, listed as a known toxin targeting the liver | liver |
| [Cl][Co][Cl] [cobalt chloride] | liver |
| [N]=O [nitric oxide] | respiratory system; cardiovascular |
| CCCC(CCC)C(=O)O [valproic acid] | reproductive system |
| Cc1cccc(Nc2cc(Cl)nc(SCC(=O)O)n2)c1C [Wy-16,463] | liver |
| CN(Cc1cnc2nc(N)nc(N)c2n1)c1ccc(C(=O)N[C@@H](CCC(=O)O)C(=O)O)cc1 [methotrexate] | liver |
| CC(=O)[O-].CC(=O)[O-].[Pb+2] [lead acetate (PbAc), lead acetate] | liver, kidney |
| corvastatin | cardiovascular system; liver |
| COc1ccc(CCN2CCC(Nc3nc4ccccc4n3Cc3ccc(F)cc3)CC2)cc1 [astemizole] | cardiovascular system |
| CC[C@H](C)C(=O)O[C@H]1C[C@H](O)C=C2C=C[C@H](C)[C@H](CC[C@@H](O)C[C@@H](O)CC(=O)O)[C@H]21 [pravastatin] | cardiovascular system; liver |
| ClC(Cl)=C(Cl)C(Cl)=C(Cl)Cl [hexachloro-1,3-butediene (HCBD), hexachloro-1,3-butediene] | kidney |
| CC(=N)S [thioacetamide] | liver; kidney |
| Cc1ccc(C)c(OCCCC(C)(C)C(=O)O)c1 [gamfibrozil] | muscle |
| c1ccccc1 [benzene] | blood |
